Here are results for 14 compounds from patent US10766914B2, “DNA alkylating agents” (OBI PHARMA, INC., priority 2015, dated 2020).

The test system of one data set is H460 cells. The experiment in a line: Proliferation assay in H460 cells (2 hr exposure, AlamarBlue). Type of data set: cell-based, human. The settings on record: Homo sapiens, NCI-H460, 2 hrs exposure, wash, 70 hrs growth, read-out: IC 50 in proliferation assay in H460 cells. The procedure:
In vitro proliferation data on the H460 […] human tumor cell line is reported above in the compound table.
Specifically, exponentially growing cells were seeded at a density of 4×10^3 cells per well in a 96 well plate and incubated at 37° C. in 5% CO2, 95% air and 100% relative humidity for 24 hours prior to addition of test compounds. Compounds were solubilized in 100% DMSO at 200 times the desired final test concentration. At the time of drug addition, compounds were further diluted to 4 times the desired final concentration with complete medium. Aliquots of 50 μl of compound at specified concentrations were added to microtiter wells already containing 150 μl of medium, resulting in the final drug concentration reported. After drug addition, the plates were incubated for an additional 2 hours at 37° C., 5% CO2, 95% air, and 100% relative humidity, then the drug was washed off and fresh medium was added and the plates were incubated for addition 70 hrs at 37° C., 5% CO2, 95% air and 100% relative humidity. At the end of this incubation, the viable cells were quantified using the AlamarBlue assay. The drug concentration resulting in growth inhibition of 50% (IC50) was calculated using Prism software (Irvine, Calif.), and the results were listed in the table.

Data set [1] has as its system A375 melanoma human tumor xenograft. The experiment in a line: Example 4-C antitumor efficacy, ectopic A375 melanoma xenograft model. It counts as in vivo, female nude mice (nu/nu). The settings on record: qd × 5 × 2, ip. The source says: (§1) Specific pathogen-free homozygous female nude mice (nu/nu, Charles River Laboratories) were used. Mice were given food and water ad libitum and housed in microisolator cages. Four to six week old animals were identified by microchips (Locus Technology, Manchester, Md., USA) at the time of the experiments. All animal studies were approved by the Institutional Animal Care and Use Committee at Threshold Pharmaceuticals, Inc.
(§2) All cell lines were from the American Type Culture Collection (ATCC, Rockville, Md., USA).
(§3) Cells were mixed with Matrigel (50% with exception for 30% in the H460) and 0.2 ml per mouse were subcutaneously implanted to the flank area of the animals. When tumor size reached 100-150 250 mm3, mice were randomized into experimental or vehicle groups with 10 mice/group and treatment was started (Day 1). The tested compounds were formulated in 5% DMSO in D5W. The regimens employed in the examples include IP, QD×5/wk (5 days on, 2 days off) as one cycle, for a total of 2 cycles; IP, once; IP, weekly for total 3 weeks; and IV, weekly for 3 weeks. Tumor growth and body weight were measured twice a week. Tumor volume was calculated as (length×width2)/2. Drug efficacy was assessed as Tumor Growth Inhibition (TGI) and Tumor Growth Delay (TGD). TGI was defined as (1−ΔT/ΔC)×100, where ΔT/ΔC presented the ratio of the change in mean (or median, if variation within the group was relatively large) tumor volume of the treated group and of the control group. TGD was calculated as the extra days for the treated tumor to reach 500 mm3 or 1000 mm3 as compared to the control group. Animals were culled when individual tumor size reached over 2000 mm3 or mean tumor volume exceeded 1000 mm3 in the group. Data are expressed as the mean±SEM. One-way analysis of variance with Dunnett post comparison test (GraphPad Prism 4) or two-tailed student's t-test were used for analysis. A P level <0.05 was considered statistically significant.
his study employed an A375 melanoma human tumor xenograft model and various compounds provided herein were compared to thiotepa and the approved anti melanoma drug, nab-Paclitaxel.

The nature of data set [2]: Example 4-C body weight change, A375 xenograft study. It counts as in vivo, female nude mice (nu/nu). The settings on record: qd × 5 × 2, ip. The procedure:
as §3
his study employed an A375 melanoma human tumor xenograft model and various compounds provided herein were compared to thiotepa and the approved anti melanoma drug, nab-Paclitaxel. The antitumor effects and the safety of administration are graphically illustrated below.

Data set [3] can be described thus: Pharmacokinetics in CD-1 mice following a single intraperitoneal dose (parent and TH2660). To be noted: mouse, in vivo, ip, parent compound. The procedure:
The pharmacokinetics of TH2873, TH2883, TH2888, TH2890, TH2901 and TH2926 were determined in CD-1 mice following a single intraperitoneal dose.
The pharmacokinetics of TH2660, the active metabolite, following a single intraperitoneal dose of TH2873, TH2883, TH2888, TH2890, TH2901 and TH2926 are shown below.

The subject of a further data set is A549 NSCLC xenograft. The data set can be described thus: Example 4-D antitumor efficacy, ectopic A549 NSCLC xenograft model. It counts as in vivo, female nude mice (nu/nu).
Source text: as §1, §2, §3
(§4) The compounds were tested in another A549 model. The compounds were dosed as follows. Daily IP dosing: 5 doses then 2 days off then 5 more doses starting at 100 mm^3 tumors on day 1 (10 animals per group average tumor volume). The antitumor effects and the safety of administration are graphically illustrated below.

Data set [4] is described as follows: Example 4-D body weight change and lethal toxicity, A549 xenograft study. Type of data set: in vivo, female nude mice (nu/nu). The procedure:
as §3, §4

Another data set addresses T1, AKR1C3 (Homo sapiens, UniProt P42330).
T1 sequence (P42330 1-323): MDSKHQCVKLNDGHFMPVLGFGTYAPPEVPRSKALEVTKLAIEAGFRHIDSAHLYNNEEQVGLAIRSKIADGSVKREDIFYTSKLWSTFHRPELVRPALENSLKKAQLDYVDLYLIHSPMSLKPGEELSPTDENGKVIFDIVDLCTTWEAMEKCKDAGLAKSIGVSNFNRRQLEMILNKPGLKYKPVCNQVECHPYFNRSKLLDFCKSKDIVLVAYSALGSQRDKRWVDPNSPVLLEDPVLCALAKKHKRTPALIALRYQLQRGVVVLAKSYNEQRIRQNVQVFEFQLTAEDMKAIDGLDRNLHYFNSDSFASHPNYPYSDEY
The data set can be described thus: Activation by the aldoketo reductase AKR1C3 (% remaining, LC/MS/MS). It counts as biochemical. The settings on record: for % Remaining: 5 μM, 25 μg/mL AKR1C3, 2 mM NADPH, 37° C. The procedure:
Recombinant human AKR1C3 was diluted to 25 μg/mL in phosphate buffered saline (PBS), pH 7.4 (37° C.), containing 2 mM NADPH. TH2870 or progesterone (positive control) in 30% methanol/70% water was added to the reaction mixture at a final concentration of 5 μM and incubated at 37° C. for 120 minutes. At various times up to 120 min, 50 μL of the reaction mixture was taken and 200 μL acetonitrile containing propranolol as internal standard was added, vortex-mixed and centrifuged for 10 min. The resulting supernatant (5 μL) was injected into a LC/MS/MS for quantitation of % remaining TH2870 and progesterone. The compounds were tested in duplicate.

The mark [5] stands for this setting: 10 mg/kg IP QD × 5/wk × 2 wks, 10 animals per group.

Take `COc1ccc(Oc2cc(C(C)OP(=O)(N3CC3)N3CC3)ccc2[N+](=O)[O-])cc1` (stereo not shown) [Compound 2873]: the IC50 in the data set with H460 cells is 5 nM. In data set [1] (40 mpk), the “TGD 500” value was found to be 12 days and the “TGD 1000” value amounted to 11 days. In addition, the inhibition in vivo at 40 mg/kg in data set [1] (Mus musculus, A-375, 40 mpk, read-out: TGI) worked out at 65%. In data set [2] (40 mpk), the “Max. BW loss %” value was 0%. Moreover, in data set [3], the AUC (in general, the area under the concentration-time curve, a measure of exposure) was 2100 ng·h/mL; the Cmax (in general, the peak of the concentration-time curve) was found to be 8430 ng/mL; the time to peak (Tmax) (commonly the time at which the peak concentration occurs) was 5 min; the half-life (as a rule, how long it takes for the measured level to halve) was 8.81 min.
`CC(OP(=O)(N1CC1)N1CC1)c1ccc([N+](=O)[O-])c(Oc2ccc(S(C)(=O)=O)cc2)c1` (stereo not shown) [Compound 2883]: the IC50 in the data set on H460 cells was 30 nM. Further, in the data set with A549 NSCLC xenograft (10 mg/kg IP QD × 5/wk × 2 wks), the “TGD 500” value is listed as greater than 85 days and the TGI (commonly the reduction of tumour growth relative to the control group) was determined as 93.5%. The “Max. BW loss %” value in data set [4] (10 mg/kg IP QD × 5/wk × 2 wks) turned out to be 15.8%. Moreover, the “Lethal Tox” value in data set [4] (setting [5]) turned out to be 5. In data set [3], the AUC is 9080 ng·h/mL, the Cmax came to 7570 ng/mL, the Tmax was 15 min and the half-life turned out to be 23.4 min.
Turning to `O=[N+]([O-])c1ccc(COP(=O)(N2CC2)N2CC2)cc1Oc1ccc2c(c1)OCO2` [Compound 2888], the IC50 with H460 cells turned out to be 3 nM. In data set [1] (10 mpk), the “TGD 500” value is reported as 6 days and the “TGD 1000” value came out at 6 days. The inhibition in vivo at 10 mg/kg in data set [1] (Mus musculus, A-375, 10 mpk, read-out: TGI) is 37.3%. Further, in data set [2] (10 mpk), the “Max. BW loss %” value is reported as 4.8%. Also, in data set [3], the AUC is 1600 ng·h/mL, the Cmax turned out to be 5810 ng/mL, the Tmax is 5 min and the half-life is 10.9 min.
With `O=[N+]([O-])c1ccc(COP(=O)(N2CC2)N2CC2)cc1Oc1ccc2ncsc2c1` [Compound 2901], the IC50 with H460 cells stood at 3 nM. In data set [3], the AUC was 2580 ng·h/mL, the Cmax was 5120 ng/mL, the Tmax was 5 min and the half-life worked out at 12.1 min.
Regarding `CS(=O)(=O)c1ccc(Oc2cc(COP(=O)(N3CC3)N3CC3)ccc2[N+](=O)[O-])cc1` [Compound 2911], the IC50 in the data set on H460 cells was 8 nM. For the same compound, in the data set with A549 NSCLC xenograft (10 mg/kg IP QD × 5/wk × 2 wks), the “TGD 500” value is given as 63 days and the TGI was found to be 88.7%. The “Max. BW loss %” value in data set [4] (10 mg/kg IP QD × 5/wk × 2 wks) is 11.1%. In addition, in data set [4] (setting [5]), the “Lethal Tox” value is reported as 0.
For the compound `CC(OP(=O)(N1CC1)N1CC1)c1ccc([N+](=O)[O-])c(Oc2ccc(NS(=O)(=O)CCl)cc2)c1` (stereo not shown) [Compound 2926], the IC50 in the data set with H460 cells stood at 20 nM. Also, in data set [3], the AUC was 9650 ng·h/mL, the Cmax is 8340 ng/mL, the Tmax is 15 min and the half-life amounted to 34.2 min.
Turning to `Cc1nc2ccc(Oc3cc(COP(=O)(N4CC4)N4CC4)ccc3[N+](=O)[O-])cc2s1` [Compound 2931], the IC50 in the data set on H460 cells came to 1 nM. The “Max. BW loss %” value in data set [4] (5 mg/kg IP QD × 5) is recorded as 25.0%. In addition, the “Lethal Tox” value in data set [4] (5 mg/kg IP QD × 5, 10 animals per group) came to 10.
For `CC(OP(=O)(N1CC1)N1CC1)c1ccc([N+](=O)[O-])c(Oc2ccc3ncccc3c2)c1` (stereo not shown) [Compound 2952], the IC50 in the data set with H460 cells turned out to be 3 nM. For the same compound, in the data set with A549 NSCLC xenograft (20 mg/kg IP QD × 5/wk × 2 wks), the “TGD 500” value is on record as 70 days and the inhibition of tumour growth (TGI) amounted to 91.8%. For the same compound, the “Max. BW loss %” value in data set [4] (20 mg/kg IP QD × 5/wk × 2 wks) worked out at 1.2%. The “Lethal Tox” value in data set [4] (20 mg/kg IP QD × 5/wk × 2 wks, 10 animals per group) is 1.
On to `CC(OP(=O)(N1CC1)N1CC1)c1ccc([N+](=O)[O-])c(Oc2ccc3ccccc3c2)c1` (stereo not shown) [Compound 2955], for which, in the data set on H460 cells, the IC50 was 6 nM. In the data set with A549 NSCLC xenograft (40 mg/kg IP QD × 5/wk × 2 wks), the “TGD 500” value was found to be 47 days and the TGI came out at 78.9%. The “Max. BW loss %” value in data set [4] (40 mg/kg IP QD × 5/wk × 2 wks) is recorded as 0.6%. Also, in data set [4] (40 mg/kg IP QD × 5/wk × 2 wks, 10 animals per group), the “Lethal Tox” value is listed as 1.
Regarding `O=[N+]([O-])c1ccc(COP(=O)(N2CC2)N2CC2)cc1Oc1ccc(-c2ccccc2)cc1` [Compound 2958], in the data set on H460 cells, the IC50 was determined as 2 nM. Besides, in the data set on A549 NSCLC xenograft (5 mg/kg IP QD × 5/wk × 2 wks), the “TGD 500” value is 44 days and the TGI came out at 77.9%. The “Max. BW loss %” value in data set [4] (5 mg/kg IP QD × 5/wk × 2 wks) is on record as 2.1%. In addition, in data set [4] (5 mg/kg IP QD × 5/wk × 2 wks, 10 animals per group), the “Lethal Tox” value is 0.
Take `CC(OP(=O)(N1CC1)N1CC1)c1ccc([N+](=O)[O-])c(Oc2ccc(-c3ccc(Cl)cc3)cc2)c1` (stereo not shown) [Compound 3041]: the IC50 in the data set on H460 cells came out at 50 nM.
Turning to `CC(OP(=O)(N1CC1)N1CC1)c1ccc([N+](=O)[O-])c(Oc2ccc(-c3ccc(F)cc3)cc2)c1` (stereo not shown) [Compound 3042], the IC50 in the data set with H460 cells was determined as 5 nM.
`O=[N+]([O-])c1ccc(COP(=O)(N2CC2)N2CC2)cc1Oc1ccc(-c2ccncc2)cc1` [Compound 3050]: the IC50 in the data set with H460 cells stood at 10 nM.
With `CC(=O)[C@H]1CC[C@H]2[C@@H]3CCC4=CC(=O)CC[C@]4(C)[C@H]3CC[C@]12C` [Progesterone, progesterone, reference compound], the “% Remaining” value at AKR1C3 (0 min) worked out at 100%; on AKR1C3 (15 min), 70.8%; on AKR1C3 (30 min) it was 49.2%; at AKR1C3 (60 min), 20.1%; at AKR1C3 (90 min), 10.6%; at AKR1C3 (120 min) it was 6.40%. Moreover, on AKR1C3 (in words), the “disappearance in the presence of AKR1C3” value is reported as “reduced slowly”.
